Molecules are shown by their SMILES. Like-named read-outs stand apart in the source and are kept apart here.

The nature of data set [1]: Plasma metabolites and pharmacokinetics after single intake of lemon or orange extract (UPLC-ESI-QTOF-MS, non-compartmental analysis). It is filed as in vivo, human. To be noted: for Occurrence Plasma LE (number of volunteers in whom the metabolite was detected): after consuming lemon extract; for Occurrence Plasma LE (number of volunteers in whom the metabolite was detected) / Occurrence Plasma OE (number of volunteers in whom the metabolite was detected): n = 16 volunteers; for Occurrence Plasma OE (number of volunteers in whom the metabolite was detected): after consuming orange extract; for Tmax / Cmax / AUC(0-t): mean ± SD; for AUC(0-t): read-out: AUC0-t. The source says:
Secondary endpoints involved the evaluation of post-prandial changes in several biomarkers dealing with metabolism, inflammation, and oxidative stress after a high-fat-high-sugars meal. The design was a randomized pharmacokinetic, double-blind, crossover, single-dose trial consisted of 2 test-phases. The volunteers were randomly allocated into two groups using a computerized random number list. Each group consumed one of the citrus extracts by following a test-phase that lasted for 1 day for blood sampling and urine collection, a 2-week washout period between each test phase, and crossover before consuming the other extract. The volunteers were instructed to avoid the consumption of flavanone-containing products, from a list provided by the researchers, for 1 week before the study and during the wash-out phase (citrus fruit juices, tomatoes, tomato-based sauces (like ‘ketchup’), peppers, almonds, etc.). […] The 3 capsules provided a total of 1.95 g orange extract, containing 260 mg hesperidin, and 3.1 g lemon extract, containing 260 mg eriocitrin. […] Plasma samples were obtained by centrifugation of peripheral venous blood at 14,000× g for 15 min at 4 °C and immediately frozen at −80 °C. Glucose, total cholesterol, HDL-cholesterol, LDL-cholesterol, triglycerides, insulin, homeostatic model assessment insulin resistance (HOMA-IR), gamma-glutamyl transferase (GGT), and alanine aminotransferase (ALT) were determined as previously reported. […] A previously validated method for analyzing phenolic metabolites in biological samples, including flavanone-derived metabolites, was used. […] After centrifugation at 14,000× g for 10 min at 4 °C, the supernatant was evaporated in a speed vacuum concentrator. Finally, samples were re-suspended in 100 µL of methanol, filtered through a 0.22 µm cellulose filters before analysis by UPLC- ESI-QTOF-MS. A targeted screening strategy was applied to identify metabolites that could be present after consuming the citrus extracts. Twenty-eight possible compounds were browsed in all the samples. The list of compounds included the polyphenols present in the extracts, with particular focus on the flavanone rutinosides hesperidin and eriocitrin, their respective aglycones hesperetin, and eriodictyol, as well as their derived phase-II conjugates (glucuronides, sulfates, sulfoglucuronides, etc.). The exact mass of each proposed compound was extracted using an extraction window of 0.01 m/z. The metabolites hesperetin 7-O-glucuronide, hesperetin 3′-O-glucuronide, hesperetin 3-O-sulfate, naringenin 4′-O-glucuronide, and naringenin 7′-O-glucuronide were quantified with their corresponding standards. […] The parent phenolic compounds were quantified with their corresponding standards. In the case of some relevant conjugated metabolites, which standards were not available (eriodictyol and homoeriodictyol conjugates), their quantification was achieved by using relative response factors (RRFs) as previously described. Briefly, RRFs are useful to check the different responses of metabolites in the mass spectrometer vs. their UV signal. While the ionization response of free vs. conjugated forms is usually very different, their UV signal response is quite similar. To this purpose, we injected in a HPLC-DAD-ESI-Q (MS) the plasma samples (n = 5) with the highest concentrations of those conjugated metabolites. Concentrations were calculated by integrating the area from their corresponding UV peaks and compared with the UV peak area of a known concentration of their corresponding available parent compounds (eriodictyol and homoeriodictyol). The concentrations calculated were used to compare the MS response for each conjugated-aglycone pair. Statistical analyses were carried out using the SPSS Software, version 23.0 (SPSS Inc., Chicago, IL, USA). Data are expressed as mean ± SD. The empirical distribution of data with the normality assumption was tested with the Shapiro-Wilk test. […]

Data set [2] can be described thus: Urinary excretion of flavanone-derived metabolites after single intake of lemon or orange extract (UPLC-ESI-QTOF-MS). It is filed as in vivo, human. To be noted: for Urinary excretion F1: urine fraction 0-4 h; for Urinary excretion F1 / Urinary excretion Total F / Urinary excretion F2 / Urinary excretion F3 / Urinary excretion F4: mean ± SD; for Urinary excretion Total F: sum of fractions F1-F4 (24 h); for Urinary excretion F2: urine fraction 4-8 h; for Urinary excretion F3: urine fraction 8-10 h; for Urinary excretion F4: urine fraction 10-24 h; for Occurrence Urine LE (number of volunteers in whom the metabolite was detected): after consuming lemon extract; for Occurrence Urine LE (number of volunteers in whom the metabolite was detected) / Occurrence Urine OE (number of volunteers in whom the metabolite was detected): n = 16 volunteers; for Occurrence Urine OE (number of volunteers in whom the metabolite was detected): after consuming orange extract. From the text: Secondary endpoints involved the evaluation of post-prandial changes in several biomarkers dealing with metabolism, inflammation, and oxidative stress after a high-fat-high-sugars meal. The design was a randomized pharmacokinetic, double-blind, crossover, single-dose trial consisted of 2 test-phases. The volunteers were randomly allocated into two groups using a computerized random number list. Each group consumed one of the citrus extracts by following a test-phase that lasted for 1 day for blood sampling and urine collection, a 2-week washout period between each test phase, and crossover before consuming the other extract. The volunteers were instructed to avoid the consumption of flavanone-containing products, from a list provided by the researchers, for 1 week before the study and during the wash-out phase (citrus fruit juices, tomatoes, tomato-based sauces (like ‘ketchup’), peppers, almonds, etc.). […] The 3 capsules provided a total of 1.95 g orange extract, containing 260 mg hesperidin, and 3.1 g lemon extract, containing 260 mg eriocitrin. […] Untreated urine samples were aliquoted and frozen at −80 °C for up to 4 weeks until analyses, avoiding freeze-thaw cycles to avoid metabolites’ deconjugation. Moreover, three measurements of blood pressure and heart rate were taken before each time-point of blood withdrawal. […] A previously validated method for analyzing phenolic metabolites in biological samples, including flavanone-derived metabolites, was used. […] After centrifugation at 14,000× g for 10 min at 4 °C, the supernatant was evaporated in a speed vacuum concentrator. Finally, samples were re-suspended in 100 µL of methanol, filtered through a 0.22 µm cellulose filters before analysis by UPLC- ESI-QTOF-MS. […] A targeted screening strategy was applied to identify metabolites that could be present after consuming the citrus extracts. Twenty-eight possible compounds were browsed in all the samples. The list of compounds included the polyphenols present in the extracts, with particular focus on the flavanone rutinosides hesperidin and eriocitrin, their respective aglycones hesperetin, and eriodictyol, as well as their derived phase-II conjugates (glucuronides, sulfates, sulfoglucuronides, etc.). The exact mass of each proposed compound was extracted using an extraction window of 0.01 m/z. The metabolites hesperetin 7-O-glucuronide, hesperetin 3′-O-glucuronide, hesperetin 3-O-sulfate, naringenin 4′-O-glucuronide, and naringenin 7′-O-glucuronide were quantified with their corresponding standards. […] The parent phenolic compounds were quantified with their corresponding standards. In the case of some relevant conjugated metabolites, which standards were not available (eriodictyol and homoeriodictyol conjugates), their quantification was achieved by using relative response factors (RRFs) as previously described. Briefly, RRFs are useful to check the different responses of metabolites in the mass spectrometer vs. their UV signal. While the ionization response of free vs. conjugated forms is usually very different, their UV signal response is quite similar. To this purpose, we injected in a HPLC-DAD-ESI-Q (MS) the plasma samples (n = 5) with the highest concentrations of those conjugated metabolites. Concentrations were calculated by integrating the area from their corresponding UV peaks and compared with the UV peak area of a known concentration of their corresponding available parent compounds (eriodictyol and homoeriodictyol). The concentrations calculated were used to compare the MS response for each conjugated-aglycone pair.

Setting [3] is: after orange (hesperidin) extract.
The mark [4] stands for this setting: human, oral, 1.95 g, after orange (hesperidin) extract.
[5] abbreviates: human, oral, 1.95 g, after orange (hesperidin) extract, read-out: Tmax.
The mark [6] stands for this setting: human, oral, 3.1 g, after lemon extract.
The mark [7] stands for this setting: human, oral, 3.1 g, after lemon extract, read-out: Tmax.
[8] abbreviates: lemon extract (3.1 g, 260 mg eriocitrin).
Setting [9] is: orange extract (1.95 g, 260 mg hesperidin).

Usually Tmax stands for the time at which the peak concentration occurs. The Cmax is the peak of the concentration-time curve. Regarding `O=C1CC(c2ccc(OC3OC(C(=O)O)C(O)C(O)C3O)cc2)Oc2cc(O)cc(O)c21` (centres unmarked) [M5, Naringenin 4′-O-glucuronide], in data set [1], the “Occurrence Plasma LE (number of volunteers in whom the metabolite was detected)” value (from here on “Occurrence Plasma LE”) was 16 and the “Occurrence Plasma OE (number of volunteers in whom the metabolite was detected)” value (shortened to “Occurrence Plasma OE”) is 14. Further, the Tmax in data set [1] (after lemon extract) was 5.7 ± 2.3 h. Moreover, the Tmax in data set [1] (setting [3]) was 7.7 ± 2.0 h. In data set [1] (setting [4]), the Cmax is 7.3 ± 5.9 nM and the AUC(0-t) is 0.0267 ± 0.0277 µM·h. Besides, in data set [1] (setting [5]), the Tmax came out at 7.5 h. Also, in data set [1] (setting [6]), the Cmax is 35.8 ± 25.9 nM and the AUC(0-t) was determined as 0.129 ± 0.124 µM·h. Moreover, the Tmax in data set [1] (setting [7]) was determined as 5.5 h. For the same compound, the “Urinary excretion F1” value in data set [2] (setting [8]) was 0.8 ± 0.5 µg/mg creatinine. In data set [2] (lemon extract), the “Urinary excretion Total F” value amounted to 4.2 ± 5.0 µg/mg creatinine, the “Urinary excretion F2” value was 1.7 ± 2.7 µg/mg creatinine, the “Urinary excretion F3” value turned out to be 1.3 ± 1.5 µg/mg creatinine and the “Urinary excretion F4” value stood at 0.4 ± 0.3 µg/mg creatinine. Further, in data set [2] (setting [9]), the “Urinary excretion F1” value turned out to be 0.1 ± 0.1 µg/mg creatinine. For the same compound, in data set [2] (orange extract), the “Urinary excretion Total F” value stood at 1.0 ± 1.5 µg/mg creatinine, the “Urinary excretion F2” value is listed as 0.3 ± 0.5 µg/mg creatinine, the “Urinary excretion F3” value came to 0.3 ± 0.4 µg/mg creatinine and the “Urinary excretion F4” value amounted to 0.3 ± 0.5 µg/mg creatinine. Further, in data set [2], the “Occurrence Urine LE (number of volunteers in whom the metabolite was detected)” value (“Occurrence Urine LE” below) was determined as 16 and the “Occurrence Urine OE (number of volunteers in whom the metabolite was detected)” value (“Occurrence Urine OE” for short) is reported as 16.

Regarding `COc1ccc(C2CC(=O)c3c(O)cc(OC4OC(C(=O)O)C(O)C(O)C4O)cc3O2)cc1O` (centres unmarked) [M7, Hesperetin 7-O-glucuronide], in data set [1], the “Occurrence Plasma LE” value is 16 and the “Occurrence Plasma OE” value worked out at 16. In data set [1] (after lemon extract), the Tmax turned out to be 6.3 ± 2.0 h. For the same compound, in data set [1] (setting [3]), the Tmax is 8.3 ± 1.6 h. Further, in data set [1] (setting [4]), the Cmax stood at 49.6 ± 51.7 nM and the AUC(0-t) stood at 0.177 ± 0.249 µM·h. Also, in data set [1] (setting [5]), the Tmax is 8.5 h. In data set [1] (setting [6]), the Cmax turned out to be 169 ± 109 nM and the AUC(0-t) was 0.703 ± 0.591 µM·h. In data set [1] (setting [7]), the Tmax came to 6.5 h. Moreover, in data set [2] (setting [8]), the “Urinary excretion F1” value was determined as 1.2 ± 1.4 µg/mg creatinine. Besides, in data set [2] (lemon extract), the “Urinary excretion Total F” value is reported as 8.5 ± 9.2 µg/mg creatinine, the “Urinary excretion F2” value stood at 4.0 ± 4.7 µg/mg creatinine, the “Urinary excretion F3” value stood at 2.7 ± 2.5 µg/mg creatinine and the “Urinary excretion F4” value came to 0.6 ± 0.6 µg/mg creatinine. The “Urinary excretion F1” value in data set [2] (setting [9]) was 0.2 ± 0.6 µg/mg creatinine. For the same compound, in data set [2] (orange extract), the “Urinary excretion Total F” value was 5.6 ± 13.2 µg/mg creatinine, the “Urinary excretion F2” value is 2.1 ± 5.7 µg/mg creatinine, the “Urinary excretion F3” value is on record as 2.2 ± 3.6 µg/mg creatinine and the “Urinary excretion F4” value is reported as 1.1 ± 3.3 µg/mg creatinine. In addition, the “Urinary excretion after lemon extract vs. orange extract” value in data set [2] (ratio lemon / orange extract intake) is reported as “around 2 fold”. In data set [2], the “Occurrence Urine LE” value stood at 16 and the “Occurrence Urine OE” value amounted to 16.

For `COc1ccc(C2CC(=O)c3c(O)cc(O)cc3O2)cc1OC1OC(C(=O)O)C(O)C(O)C1O` (centres unmarked) [M8, Hesperetin 3′-O-glucuronide], in data set [1], the “Occurrence Plasma LE” value is reported as 16 and the “Occurrence Plasma OE” value is 16. The Tmax in data set [1] (after lemon extract) was found to be 6.4 ± 2.0 h. Besides, the Tmax in data set [1] (setting [3]) stood at 8.4 ± 1.6 h. For the same compound, in data set [1] (setting [4]), the Cmax came to 107 ± 128 nM and the AUC(0-t) came out at 0.409 ± 0.643 µM·h. For the same compound, the Tmax in data set [1] (setting [5]) came out at 8.5 h. Further, in data set [1] (setting [6]), the Cmax amounted to 198 ± 104 nM and the AUC(0-t) was found to be 0.803 ± 0.569 µM·h. The Tmax in data set [1] (setting [7]) came out at 6.5 h. The “Urinary excretion F1” value in data set [2] (setting [8]) worked out at 2.1 ± 2.3 µg/mg creatinine. In data set [2] (lemon extract), the “Urinary excretion Total F” value is listed as 24.2 ± 23.7 µg/mg creatinine, the “Urinary excretion F2” value was 10.7 ± 11.3 µg/mg creatinine, the “Urinary excretion F3” value came to 9.2 ± 7.7 µg/mg creatinine and the “Urinary excretion F4” value is on record as 2.2 ± 2.4 µg/mg creatinine. In data set [2] (setting [9]), the “Urinary excretion F1” value was 0.5 ± 1.5 µg/mg creatinine. Besides, in data set [2] (orange extract), the “Urinary excretion Total F” value amounted to 9.9 ± 18.9 µg/mg creatinine, the “Urinary excretion F2” value was 4.3 ± 11.5 µg/mg creatinine, the “Urinary excretion F3” value is recorded as 3.3 ± 4.2 µg/mg creatinine and the “Urinary excretion F4” value worked out at 1.8 ± 1.6 µg/mg creatinine. Moreover, in data set [2], the “Occurrence Urine LE” value is 16 and the “Occurrence Urine OE” value is 16.

As for `O=C1C[C@@H](c2ccc(O)c(O)c2)Oc2cc(O)cc(O)c21` [M12, Eriodictyol], in data set [1], the “Occurrence Plasma LE” value worked out at 16 and the “Occurrence Plasma OE” value was 0. In addition, in data set [2], the “Occurrence Urine LE” value is given as 14 and the “Occurrence Urine OE” value is listed as 4.
